One compound from patent US6387948B1, “8-Acetylarteminolide and process for preparing same” (Korea Research Institute of Bioscience and Biotechnology, priority 2000, dated 2002) can be followed below.

≈ marks a conversion by molar mass, not a printed value. Where “and” joins values, the source holds several entries; their conditions need not be identical. Equal values may be shown once.

Data set [1] concerns Human breast cancer cell line MCF-7. Description: Cell-cycle inhibiting activity, propidium iodide FACS analysis. Type of data set: cell-based. Conditions: for % of cells G0/G1 phase / % of cells G2/M phase / % of cells S phase: 7.5 μl of 5 mg/ml DMSO solution in 7.5 ml medium. How it is done: Human breast cancer cell line MCF-7(ATCC HTB-22) was divided into 7.5 ml portions of RPMI1640 culture medium(GIBCO BRL) kept in T25 flasks and incubated at 37° C. under an atmosphere containing 5% CO2 for 12 hours. Added to the cell cultures of one group of flasks was 7.5 μl of DMSO solution containing 5 mg/ml of 8-acetylarteminolide obtained in Example 1, while 7.5 μl of pure DMSO was added to the cultures of another group of flasks as a control, followed by incubation at 37° C. under an atmosphere containing 5% CO2 for 12, 24 and 36 hours, respectively.
To examine the activity of inventive compound in inhibiting the progression of the cell cycle, each of the cultures was treated with trypsin and centrifuged at 200×g for 5 minutes, and then, the cell precipitate was washed twice with cold PBS. 3 ml of 70% ethanol was added thereto and the resulting mixture was left standing at −20° C. for 12 hours to fix the cell. The resulting mixture was centrifuged at 200×g for 5 minutes and the cell precipitate was washed twice with PBS to remove remaining ethanol. Added to the cell precipitate in sequence were 1 ml of PBS and 50 μl RNase A solution(100 μg/ml). The mixture was reacted at 37° C. for 30 minutes and 10 μl of PBS containing 1 mg/ml of propidium iodide was added thereto.
The cell cycles of 20,000 stained cells were analyzed by using Becton-Dickinson FACS Calibur and Becton-Dickinson Modifit cell-cycle analysis program.
(A flow cytometer gives signals particle by particle.)

The target in data set [2] is T1, farnesyl-protein transferase(FPTase) (Rattus norvegicus, UniProt Q02293+Q04631).
T1 construct: the cerebrum of a white rat(male Sprague Dowley weighing 100-150 g) was washed with physiological saline solution and homogenized; from tissue; host or cells: rat cerebrum (male Sprague Dawley)
Description: Farnesyl-protein transferase inhibiting activity, scintillation proximity assay (SPA). Type of data set: biochemical, white rat. Conditions: rat cerebrum FPTase, 3H-FPP, biotin-lamin B peptide; read-out: concentration required for inhibiting farnesyl protein transferase by 50%(IC50) (converted). Here is the method:
Farnesyl-protein transferase(FPTase) activity was determined in accordance with the scintillation proximity assay(SPA) method of Blown et al. described in Cell, 62, 1(1990) by using ^3H-farnesyl pyrophosphate(^3H-FPP) as a substrate.
First, the cerebrum of a white rat(male Sprague Dowley weighing 100-150 g) was washed with physiological saline solution and homogenized. The homogenized solution was centrifuged and partially purified by using Q sepharose fast flow column(Pharmacia, co.) to obtain famnesyl protein transferase(FPTase).
10 μl of 8-acetylarteminolide, 40 μl of FPTase obtained above, 10 μl of an assay buffer(50 mM Tris-HCl, pH 7.5, 25 mM MgCl2, 2 mM KCl, 5 mM DTT, 5 mM Na2HPO4, 0.01% Triton X-100), 20 μl of diluted ^3H-FPP and 20 μl of biotin-lamin B peptide were mixed together and the resulting mixture was reacted at room temperature for 30 minutes. 150 μl of SPA bead/stop reagent solution(Amersham, Inc. UK) was added to the mixture and the enzymatic activity was determined by examining the extent of biotin-lamin B peptide farneslyation, expressed by unit of count per minute(CPM), with a liquid scintillation counter.
The FPTase inhibiting activity was then calculated in accordance with the following equation: [formula] […]
A general note: In a scintillation proximity assay essentially only radioactivity close to the scintillant gives light.

Data set [3] has as its system Human breast cancer cell line MCF-7. Description: Cell-cycle inhibiting activity, propidium iodide FACS analysis. Type of data set: cell-based. The following applies: MCF7, G2 to M phase progression, read-out: concentration required for inhibiting the progression of the cell cycle by 50%.
Data set [4] can be described thus: Solubility (physicochemical properties).
Another data set deals with Angiogenesis. Description: Angiogenesis-suppressing activity, chorioallantoic membrane(CAM) assay. Type of data set: in vivo. The following applies: Gallus gallus; 10 μg/ml, CAM of fertilized chicken eggs. Here is the method: Angiogenesis was determined in accordance with the chorioallantoic membrane(CAM) assay method described in Kusaka et al., Biochem. Biophy. Res. Comm., 174, 1070(1991), using fertilized chicken eggs.
A fertilized chicken egg(Pulmuwon co., Korea) was incubated at 37-38° C. and a humidity of more than 90%. Here, 0 day-embryo means that the fertilized egg had been stored at 18° C. for less than 4 days since laying.
The pointed end of the fertilized egg was scratched with a knife, laid horizontally, the scratched site was punctured with a 5 ml syringe and 2 ml of albumin was extracted from the fertilized egg. The puncture hole was then sealed with a glass-tape. The fertilized egg, positioned such that the sealed hole was at the bottom, was incubated under the same condition described above.
The end of the fertilized egg where the air sac is located, i.e., the end opposite to the hole site was opened, a window having a diameter of 2-3 cm was installed therein, the window was sealed with a glass-tape, and the incubation was resumed.
By this time, a CAM of 2-5 mm diameter had developed. 8-Acetylarteminolide was dissolved in ethanol to a concentration of 10 μg/ml, 10 μl of the solution was dropped on quartered Thermanox coverslip(Nunc, Co.,) and dried in a clean bench. […]
Angiogenesis suppressing activity was then calculated in accordance with the following equation: [formula]

As usually defined, the inhibition is how much of the control response was suppressed. On to `C=C1C(=O)OC2C1CCC(C)(O)C13C=CC(C)(C21)C1(C3)C(=O)OC2C3C(C)=CC(=O)C3=C(C)CC(OC(C)=O)C21` (stereo not shown) [8-acetylarteminolide], for which, in data set [1] (MCF-7, 12 hours), the “% of cells G0/G1 phase” value is 47.59%, the “% of cells G2/M phase” value is 18.06% and the “% of cells S phase” value is recorded as 34.35%. In data set [1] (MCF-7, 24 hours), the “percentage of cells in the G2/M phase compared to the control cells” value came out at 10 fold, the “% of cells G0/G1 phase” value was determined as 47.49%, the “% of cells G2/M phase” value is on record as 27.97% and the “% of cells S phase” value is given as 24.54%. Besides, in data set [1] (MCF-7, 36 hours), the “percentage of cells in the G2/M phase compared to the control cells” value was “two-fold higher”, the “% of cells G0/G1 phase” value turned out to be 73.2%, the “% of cells G2/M phase” value is 19.79% and the “% of cells S phase” value came out at 7.01%. For the same compound, the IC50 in data set [2] is ~1820 nM and ~1800 nM and 1820 nM and 1800 nM. The IC50 in data set [3] was roughly 5 µg/mL (≈ 9.11 µM). In addition, the “Solubility Insoluble:” value in data set [4] (solvents in which insoluble) was “hexane, H2O”. For the same compound, the “Solubility Soluble:” value in data set [4] (solvents in which soluble) was “alcohol, acetone, chloroform, DMSO”. In addition, the inhibition at 10 µg/mL with Angiogenesis was 60%.
